15 molecules from US20190330224A1, “ACC INHIBITORS AND USES THEREOF” (Gilead Apollo, LLC, priority 2015, published 2019) can be followed below.

In brackets after ≈: the same amount, converted by molar mass.

One assay addresses Human ACC2 (Homo sapiens, UniProt O00763). Put plainly: In vitro ACC2 inhibition assay (ADP-Glo), human ACC2. The class given is biochemical. Conditions: 5 nM ACC2, 20 μM ATP, 20 μM acetyl-CoA. (ADP-Glo turns the ADP formed in a reaction into a luminescent signal.)
Another assay concerns C. albicans ATCC 90028. Briefly: Anti-Fungal Activity Assay (broth microtiter MIC), C. albicans. The class given is cell-based, Candida albicans. The conditions noted are these: 3 replicates, MIC recorded at 48 h; for MIC: Candida albicans, ATCC90028, 48 h, read-out: MIC C. albicans ATCC 90028. The procedure, abridged: (§1)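 Broth microdilution per CLSI M27-A3 in RPMI 1640+MOPS, inoculum from overnight Sabouraud dextrose agar colonies at 35° C; compounds from 1 mg/mL DMSO stocks. MIC read visually against growth control at 48 h, with an added 24 h reading for soraphen.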

Another assay has as its system C. krusei ATCC 6258. Briefly: Anti-Fungal Activity Assay (broth microtiter MIC), C. krusei. Conditions: 3 replicates, MIC recorded at 48 h; for MIC: Pichia kudriavzevii, ATCC6258, 48 h, read-out: MIC C. krusei ATCC 6258. Format: cell-based, Candida krusei. The procedure, abridged: as §1
The test system of assay [1] is C. parapsilosis ATCC 22019. Put plainly: Anti-Fungal Activity Assay (broth microtiter MIC), C. parapsilosis. The class given is cell-based, Candida parapsilosis. The conditions noted are these: 3 replicates, MIC recorded at 48 h; for MIC: Lodderomyces parapsilosis, ATCC22019, 48 h, read-out: MIC C. parapsilosis ATCC 22019. The procedure, abridged: as §1
The next assay concerns the target Fungal ACC2 (UniProt Q00955). Conditions: read-out: Fungal ACC2 (IC50, in vitro ACC2 inhibition).

For orientation: IC50 means the concentration at which inhibition is half-maximal. The term MIC denotes the least concentration at which growth counts as inhibited.

Chain of Fungal ACC2 (Q00955 whole entry): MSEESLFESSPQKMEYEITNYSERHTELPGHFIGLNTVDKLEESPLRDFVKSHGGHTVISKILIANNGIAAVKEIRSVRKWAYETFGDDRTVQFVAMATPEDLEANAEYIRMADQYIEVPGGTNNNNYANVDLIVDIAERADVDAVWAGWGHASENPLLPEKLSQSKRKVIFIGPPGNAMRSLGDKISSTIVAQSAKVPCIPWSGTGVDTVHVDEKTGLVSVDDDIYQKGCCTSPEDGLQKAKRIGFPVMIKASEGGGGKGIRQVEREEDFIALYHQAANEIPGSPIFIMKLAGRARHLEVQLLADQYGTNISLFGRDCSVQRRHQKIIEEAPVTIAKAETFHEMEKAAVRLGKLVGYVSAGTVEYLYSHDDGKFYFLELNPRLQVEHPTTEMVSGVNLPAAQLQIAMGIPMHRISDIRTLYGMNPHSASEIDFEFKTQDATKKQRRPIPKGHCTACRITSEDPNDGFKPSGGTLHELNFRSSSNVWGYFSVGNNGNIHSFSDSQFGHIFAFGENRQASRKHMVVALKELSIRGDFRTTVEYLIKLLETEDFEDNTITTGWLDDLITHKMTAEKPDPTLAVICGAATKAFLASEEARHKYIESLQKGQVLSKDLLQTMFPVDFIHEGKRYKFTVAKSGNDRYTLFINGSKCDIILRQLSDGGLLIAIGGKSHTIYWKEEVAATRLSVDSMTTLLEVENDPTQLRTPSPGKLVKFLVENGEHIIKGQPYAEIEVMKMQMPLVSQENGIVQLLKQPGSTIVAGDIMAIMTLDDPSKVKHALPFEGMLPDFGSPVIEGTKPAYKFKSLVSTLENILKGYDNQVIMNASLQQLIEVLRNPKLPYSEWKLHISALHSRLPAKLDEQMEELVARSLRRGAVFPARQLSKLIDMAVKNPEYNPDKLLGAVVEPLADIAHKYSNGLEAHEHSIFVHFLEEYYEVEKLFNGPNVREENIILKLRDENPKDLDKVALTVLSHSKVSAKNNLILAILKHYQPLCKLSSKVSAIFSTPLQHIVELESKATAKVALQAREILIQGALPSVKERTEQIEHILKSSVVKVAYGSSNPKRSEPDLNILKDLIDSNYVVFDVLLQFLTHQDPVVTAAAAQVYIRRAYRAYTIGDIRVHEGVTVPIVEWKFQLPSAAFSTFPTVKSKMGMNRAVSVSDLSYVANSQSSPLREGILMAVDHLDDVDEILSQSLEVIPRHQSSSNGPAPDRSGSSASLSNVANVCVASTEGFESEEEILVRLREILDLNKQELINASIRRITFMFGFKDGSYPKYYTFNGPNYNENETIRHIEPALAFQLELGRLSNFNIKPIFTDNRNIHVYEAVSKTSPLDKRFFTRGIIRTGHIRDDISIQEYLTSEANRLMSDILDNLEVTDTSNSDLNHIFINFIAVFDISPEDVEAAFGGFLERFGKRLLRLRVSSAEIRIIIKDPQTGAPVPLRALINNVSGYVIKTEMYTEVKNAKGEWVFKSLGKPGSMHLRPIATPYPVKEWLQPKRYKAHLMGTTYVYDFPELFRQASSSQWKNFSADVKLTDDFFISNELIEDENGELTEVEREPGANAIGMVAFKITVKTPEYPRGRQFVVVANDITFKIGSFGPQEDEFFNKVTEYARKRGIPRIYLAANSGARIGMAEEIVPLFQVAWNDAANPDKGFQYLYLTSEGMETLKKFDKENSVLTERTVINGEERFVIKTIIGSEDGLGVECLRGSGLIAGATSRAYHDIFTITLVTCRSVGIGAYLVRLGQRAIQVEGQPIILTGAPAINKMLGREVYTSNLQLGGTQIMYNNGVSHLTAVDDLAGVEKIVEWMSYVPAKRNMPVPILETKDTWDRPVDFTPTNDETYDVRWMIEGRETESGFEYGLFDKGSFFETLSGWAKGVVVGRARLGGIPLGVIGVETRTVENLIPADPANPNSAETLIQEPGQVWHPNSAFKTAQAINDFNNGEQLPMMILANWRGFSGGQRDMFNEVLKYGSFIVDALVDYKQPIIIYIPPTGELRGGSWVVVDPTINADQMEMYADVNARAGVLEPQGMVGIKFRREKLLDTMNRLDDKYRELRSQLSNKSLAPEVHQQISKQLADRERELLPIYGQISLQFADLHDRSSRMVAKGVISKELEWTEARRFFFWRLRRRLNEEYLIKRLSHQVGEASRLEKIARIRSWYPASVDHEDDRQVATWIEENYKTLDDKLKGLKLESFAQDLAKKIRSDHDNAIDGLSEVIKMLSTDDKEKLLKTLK
Chain of Human ACC2 (O00763 whole entry): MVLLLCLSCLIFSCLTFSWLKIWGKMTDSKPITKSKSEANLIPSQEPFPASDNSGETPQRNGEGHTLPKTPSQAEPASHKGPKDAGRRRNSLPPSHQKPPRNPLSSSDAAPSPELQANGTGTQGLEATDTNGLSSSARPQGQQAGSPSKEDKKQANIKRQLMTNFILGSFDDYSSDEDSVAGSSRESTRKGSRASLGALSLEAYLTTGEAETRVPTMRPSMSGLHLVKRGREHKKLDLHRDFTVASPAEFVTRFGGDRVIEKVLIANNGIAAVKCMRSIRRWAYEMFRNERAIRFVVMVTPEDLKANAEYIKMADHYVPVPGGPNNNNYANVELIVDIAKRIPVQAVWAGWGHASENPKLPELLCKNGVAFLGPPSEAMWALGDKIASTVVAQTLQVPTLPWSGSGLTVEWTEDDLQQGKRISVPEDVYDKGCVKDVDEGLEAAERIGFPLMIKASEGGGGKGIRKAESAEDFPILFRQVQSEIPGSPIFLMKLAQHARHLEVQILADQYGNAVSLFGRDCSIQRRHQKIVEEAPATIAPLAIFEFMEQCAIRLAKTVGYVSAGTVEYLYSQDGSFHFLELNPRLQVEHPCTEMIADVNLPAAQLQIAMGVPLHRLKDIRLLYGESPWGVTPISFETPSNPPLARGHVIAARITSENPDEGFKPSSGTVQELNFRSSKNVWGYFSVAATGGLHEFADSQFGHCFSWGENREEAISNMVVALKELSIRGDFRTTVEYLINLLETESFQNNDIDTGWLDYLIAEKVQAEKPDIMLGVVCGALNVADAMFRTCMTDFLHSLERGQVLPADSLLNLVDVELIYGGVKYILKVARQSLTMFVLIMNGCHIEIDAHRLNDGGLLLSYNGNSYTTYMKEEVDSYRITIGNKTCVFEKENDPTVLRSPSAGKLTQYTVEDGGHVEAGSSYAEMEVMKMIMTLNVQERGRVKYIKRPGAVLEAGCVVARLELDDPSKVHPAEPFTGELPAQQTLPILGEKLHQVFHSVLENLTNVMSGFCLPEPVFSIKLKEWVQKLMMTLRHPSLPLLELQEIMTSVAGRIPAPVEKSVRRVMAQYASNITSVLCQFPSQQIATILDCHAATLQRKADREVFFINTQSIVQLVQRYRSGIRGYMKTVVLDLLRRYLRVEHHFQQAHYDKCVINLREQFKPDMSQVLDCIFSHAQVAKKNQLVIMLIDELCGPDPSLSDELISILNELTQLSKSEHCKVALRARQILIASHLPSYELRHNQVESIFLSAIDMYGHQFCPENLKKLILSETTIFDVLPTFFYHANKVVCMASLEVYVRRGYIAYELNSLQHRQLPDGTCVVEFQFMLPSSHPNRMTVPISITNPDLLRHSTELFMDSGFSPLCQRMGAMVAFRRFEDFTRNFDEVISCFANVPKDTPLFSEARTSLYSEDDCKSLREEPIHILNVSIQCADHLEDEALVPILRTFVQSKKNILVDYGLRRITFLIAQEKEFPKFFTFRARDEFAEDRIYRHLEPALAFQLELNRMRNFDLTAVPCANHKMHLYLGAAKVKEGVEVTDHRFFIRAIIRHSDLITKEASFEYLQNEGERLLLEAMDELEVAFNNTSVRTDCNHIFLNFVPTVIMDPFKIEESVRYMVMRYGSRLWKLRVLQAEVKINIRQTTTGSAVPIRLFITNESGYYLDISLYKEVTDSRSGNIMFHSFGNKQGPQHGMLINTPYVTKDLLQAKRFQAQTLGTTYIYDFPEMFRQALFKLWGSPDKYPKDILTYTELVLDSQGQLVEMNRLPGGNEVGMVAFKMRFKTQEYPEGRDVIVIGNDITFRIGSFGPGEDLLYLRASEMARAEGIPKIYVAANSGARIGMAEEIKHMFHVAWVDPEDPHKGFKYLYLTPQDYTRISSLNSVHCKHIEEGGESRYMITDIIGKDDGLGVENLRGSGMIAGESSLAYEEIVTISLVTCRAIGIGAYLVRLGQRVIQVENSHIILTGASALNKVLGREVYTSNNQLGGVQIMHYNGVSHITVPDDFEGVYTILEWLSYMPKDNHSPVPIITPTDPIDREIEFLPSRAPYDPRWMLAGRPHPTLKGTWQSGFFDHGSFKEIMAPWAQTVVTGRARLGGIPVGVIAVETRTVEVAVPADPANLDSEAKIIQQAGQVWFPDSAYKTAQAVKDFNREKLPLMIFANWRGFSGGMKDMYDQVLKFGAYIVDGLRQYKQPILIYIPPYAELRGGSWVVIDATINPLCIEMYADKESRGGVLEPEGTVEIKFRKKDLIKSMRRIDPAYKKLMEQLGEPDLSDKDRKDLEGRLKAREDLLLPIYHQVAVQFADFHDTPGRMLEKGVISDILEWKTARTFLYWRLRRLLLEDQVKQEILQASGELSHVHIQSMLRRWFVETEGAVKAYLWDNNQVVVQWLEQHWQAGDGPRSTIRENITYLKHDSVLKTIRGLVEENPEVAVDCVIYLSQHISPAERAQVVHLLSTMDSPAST

`COCCO[C@@H](Cn1c(=O)n(C2CCN(C(C)C)C2=O)c(=O)c2c(C)c(-n3nccn3)sc21)c1cc(F)ccc1OC` (stereo partly drawn) [Compound I-4, 1-((R)-2-(5-fluoro-2-methoxyphenyl)-2-(2-methoxy-ethoxy)ethyl)-3-(1-isopropyl-2-oxopyrrolidin-3-yl)-5-methyl-6-(2H-1,2,3-triazol-2-yl)thieno[2,3-d]pyrimidine-2,4(1H,3H)-dione]: the concentration for half-maximal inhibition (IC50) on Human ACC2 lay within 10 to 100 nM; on Fungal ACC2, 2 to 10 nM. Also, the minimum inhibitory concentration (MIC) (with C. albicans ATCC 90028; with C. krusei ATCC 6258; in assay [1]) was 2.1 to 4 µg/mL (≈ 3.5 to 6.66 µM) in each case.
As to `COc1ccc(F)cc1C(=O)Cn1c(=O)n(C2CCN(C)C2=O)c(=O)c2c(C)c(-n3nccn3)sc21` (stereo in doubt) [Compound I-162, (R)-1-(2-(5-fluoro-2-methoxyphenyl)-2-oxoethyl)-5-methyl-3-(1-methyl-2-oxopyrrolidin-3-yl)-6-(2H-1,2,3-triazol-2-yl)thieno[2,3-d]pyrimidine-2,4(1H,3H)-dione], the half-inhibitory concentration (IC50) at Human ACC2 was in the range of 100 to 1000 nM; at Fungal ACC2 it was 10 to 100 nM. The “MIC C. albicans ATCC 90028” value against C. albicans ATCC 90028 is “C (provided an MIC of 2.1-4.0 μg/mL)”. In the assay on C. krusei ATCC 6258, the “MIC C. krusei ATCC 6258” value is “C (provided an MIC of 2.1-4.0 μg/mL)”. The “MIC C. parapsilosis ATCC 22019” value in assay [1] is “C (provided an MIC of 2.1-4.0 μg/mL)”.
Take `COc1ccccc1[C@H](Cn1c(=O)n([C@@H]2CCN(C)C2=O)c(=O)c2c(C)c(-n3nccn3)sc21)OC` [Compound I-172, 1-((R)-2-methoxy-2-(2-methoxyphenyl)ethyl)-5-methyl-3-((R)-1-methyl-2-oxopyrrolidin-3-yl)-6-(2H-1,2,3-triazol-2-yl)thieno[2,3-d]pyrimidine-2,4(1H,3H)-dione]: the IC50 at Human ACC2 lay within 10 to 100 nM; on Fungal ACC2, 0.7 to 2 nM. Besides, the MIC (in the assay with C. albicans ATCC 90028; with C. krusei ATCC 6258; in assay [1]) was 2.1 to 4 µg/mL (≈ 4.11 to 7.83 µM) each time.
As to `COc1ccc(F)cc1[C@H](Cn1c(=O)n([C@H]2CC(=O)N(C)C2)c(=O)c2c(C)c(-n3nccn3)sc21)OCCO` [Compound I-95, 1-((R)-2-(5-fluoro-2-methoxyphenyl)-2-(2-hydroxy-ethoxy)ethyl)-5-methyl-3-((S)-1-methyl-5-oxopyrrolidin-3-yl)-6-(2H-1,2,3-triazol-2-yl)thieno[2,3-d]pyrimidine-2,4(1H,3H)-dione], the 50% inhibitory concentration (IC50) against Human ACC2 and at Fungal ACC2 was 2 to 10 nM each time. The MIC (with C. albicans ATCC 90028; in the assay on C. krusei ATCC 6258; in assay [1]) was 2.1 to 4 µg/mL (≈ 3.76 to 7.16 µM) throughout.
Regarding `COCCO[C@@H](Cn1c(=O)n([C@@H]2CC(=O)N(C)C2)c(=O)c2c(C)c(-n3nccn3)sc21)c1cc(F)ccc1OC` [Compound I-92, 1-((R)-2-(5-fluoro-2-methoxyphenyl)-2-(2-methoxy-ethoxy)ethyl)-5-methyl-3-((R)-1-methyl-5-oxopyrrolidin-3-yl)-6-(2H-1,2,3-triazol-2-yl)thieno[2,3-d]pyrimidine-2,4(1H,3H)-dione], the IC50 against Human ACC2 lay in the range of 10 to 100 nM; at Fungal ACC2 it was 0.7 to 2 nM. In addition, the MIC (in the assay with C. albicans ATCC 90028; in the assay with C. krusei ATCC 6258; in assay [1]) was 2.1 to 4 µg/mL (≈ 3.67 to 6.99 µM) in each case.
Turning to `COc1ccccc1C(=O)Cn1c(=O)n([C@@H]2CCN(C)C2=O)c(=O)c2c(C)c(-n3nccn3)sc21` [Compound I-167, (R)-1-(2-(2-methoxyphenyl)-2-oxoethyl)-5-methyl-3-(1-methyl-2-oxopyrrolidin-3-yl)-6-(2H-1,2,3-triazol-2-yl)thieno[2,3-d]pyrimidine-2,4(1H,3H)-dione], the half-inhibitory concentration (IC50) at Human ACC2 is 100 to 1000 nM; at Fungal ACC2 it was 10 to 100 nM. For the same molecule, the minimum inhibitory concentration (MIC) (in the assay with C. albicans ATCC 90028; in the assay on C. krusei ATCC 6258; in assay [1]) was 2.1 to 4 µg/mL (≈ 4.25 to 8.09 µM) each time.
On to `COc1ccc(F)cc1[C@H](COc1nc2sc(-n3nccn3)c(C)c2c(=O)n1[C@@H]1CC(=O)N(C)C1)OCCO` [Compound I-112, 2-((R)-2-(5-fluoro-2-methoxyphenyl)-2-(2-hydroxy-ethoxy)ethoxy)-5-methyl-3-((R)-1-methyl-5-oxopyrrolidin-3-yl)-6-(2H-1,2,3-triazol-2-yl)thieno[2,3-d]pyrimidin-4(3H)-one], for which the IC50 at Human ACC2 is above 1000 nM; at Fungal ACC2 it was 10 to 100 nM. The MIC (in the assay on C. albicans ATCC 90028; with C. krusei ATCC 6258; in assay [1]) was 2.1 to 4 µg/mL (≈ 3.76 to 7.16 µM) each time.
Take `COc1ccc(F)cc1[C@H](Cn1c(=O)n([C@@H]2CCNC2=O)c(=O)c2c(C)c(-n3nccn3)sc21)O[C@H]1C[C@H](O)C1` [Compound I-186, 1-((R)-2-(5-fluoro-2-methoxyphenyl)-2-((1r,3R)-3-hydroxycyclobutoxy)ethyl)-5-methyl-3-((R)-2-oxopyrrolidin-3-yl)-6-(2H-1,2,3-triazol-2-yl)thieno[2,3-d]pyrimidine-2,4(1H,3H)-dione]: the 50% inhibitory concentration (IC50) on Human ACC2 fell in the range of 2 to 10 nM; at Fungal ACC2, 0.7 to 2 nM. Besides, the minimal inhibitory concentration (MIC) (in the assay with C. albicans ATCC 90028; with C. krusei ATCC 6258; in assay [1]) was 2.1 to 4 µg/mL (≈ 3.68 to 7.01 µM) in each case.
Turning to `COCCO[C@@H](Cn1c(=O)n(C2CCCN(C(C)C)C2=O)c(=O)c2c(C)c(-n3nccn3)sc21)c1cc(F)ccc1OC` (stereo partly drawn) [Compound I-16, 1-((R)-2-(5-fluoro-2-methoxyphenyl)-2-(2-methoxy-ethoxy)ethyl)-3-(1-isopropyl-2-oxopiperidin-3-yl)-5-methyl-6-(2H-1,2,3-triazol-2-yl)thieno[2,3-d]pyrimidine-2,4(1H,3H)-dione], the IC50 on Human ACC2 was 100 to 1000 nM; at Fungal ACC2, 2 to 10 nM. Further, the MIC (in the assay on C. albicans ATCC 90028; with C. krusei ATCC 6258; in assay [1]) was 2.1 to 4 µg/mL (≈ 3.42 to 6.51 µM) throughout.
`COc1ccc(F)cc1[C@H](COc1nc2sc(-n3nccn3)c(C)c2c(=O)n1[C@@H]1CNC(=O)C1)OCCO` [Compound I-103, 2-((R)-2-(5-fluoro-2-methoxyphenyl)-2-(2-hydroxy-ethoxy)ethoxy)-5-methyl-3-((S)-5-oxopyrrolidin-3-yl)-6-(2H-1,2,3-triazol-2-yl)thieno[2,3-d]pyrimidin-4(3H)-one]: the IC50 is above 1000 nM at Human ACC2 and 10 to 100 nM at Fungal ACC2. For the same molecule, the MIC (in the assay with C. albicans ATCC 90028; in the assay on C. krusei ATCC 6258; in assay [1]) was 2.1 to 4 µg/mL (≈ 3.86 to 7.35 µM) throughout.
For `COc1ccc(F)cc1[C@H](Cn1c(=O)n([C@H]2CCN(C)C2=O)c(=O)c2c(C)c(-n3nccn3)sc21)OCCCO` [Compound I-154, 1-((R)-2-(5-fluoro-2-methoxyphenyl)-2-(3-hydroxy-propoxy)ethyl)-5-methyl-3-((S)-1-methyl-2-oxopyrrolidin-3-yl)-6-(2H-1,2,3-triazol-2-yl)thieno[2,3-d]pyrimidine-2,4(1H,3H)-dione], the IC50 against Human ACC2 lay within 2 to 10 nM; at Fungal ACC2, 0.7 to 2 nM. Further, the MIC in the assay on C. albicans ATCC 90028 lay within 2.1 to 4 µg/mL (≈ 3.67 to 6.99 µM); with C. krusei ATCC 6258, 0.25 to 1 µg/mL (≈ 0.437 to 1.75 µM); in assay [1], 2.1 to 4 µg/mL (≈ 3.67 to 6.99 µM).
On to `COc1ccc(F)cc1[C@H](Cn1c(=O)n([C@H]2CCCN(C)C2=O)c(=O)c2c(C)c(-n3nccn3)sc21)OCCC#N` [Compound I-116, 3-((R)-1-(5-fluoro-2-methoxyphenyl)-2-(5-methyl-3-((S)-1-methyl-2-oxopiperidin-3-yl)-2,4-dioxo-6-(2H-1,2,3-triazol-2-yl)-3,4-dihydrothieno[2,3-d]pyrimidin-1(2H)-yl)ethoxy)propanenitrile], for which the figures for the half-inhibitory concentration (IC50) against Human ACC2 and at Fungal ACC2 were 10 to 100 nM and 0.7 to 2 nM, respectively. Moreover, the minimum inhibitory concentration (MIC) (with C. albicans ATCC 90028; with C. krusei ATCC 6258; in assay [1]) was 2.1 to 4 µg/mL (≈ 3.61 to 6.88 µM) in each case.
Regarding `COc1ccc(F)cc1[C@H](Cn1c(=O)n([C@H]2CCNC2=O)c(=O)c2c(C)c(-n3nccn3)sc21)O[C@H]1CC[C@@H](O)CC1` [Compound I-187, 1-((R)-2-(5-fluoro-2-methoxyphenyl)-2-(((1 s, 4S)-4-hydroxycyclohexyl)oxy)ethyl)-5-methyl-3-((S)-2-oxopyrrolidin-3-yl)-6-(2H-1,2,3-triazol-2-yl)thieno[2,3-d]pyrimidine-2,4(1H,3H)-dione], the 50% inhibitory concentration (IC50) against Human ACC2 was in the range of 2 to 10 nM; at Fungal ACC2, 0.7 to 2 nM. Moreover, the minimum inhibitory concentration (MIC) (in the assay on C. albicans ATCC 90028; in the assay on C. krusei ATCC 6258; in assay [1]) was 2.1 to 4 µg/mL (≈ 3.51 to 6.68 µM) each time.
For the molecule `COc1ccc(F)cc1[C@H](COc1nc2sc(-n3nccn3)c(C)c2c(=O)n1[C@H]1CCN(C)C1=O)OCCCO` [Compound I-156, 2-((R)-2-(5-fluoro-2-methoxyphenyl)-2-(3-hydroxy-propoxy)ethoxy)-5-methyl-3-((S)-1-methyl-2-oxopyrrolidin-3-yl)-6-(2H-1,2,3-triazol-2-yl)thieno[2,3-d]pyrimidin-4(3H)-one], the 50% inhibitory concentration (IC50) on Human ACC2 is above 1000 nM; at Fungal ACC2, 100 to 1000 nM. The MIC (with C. albicans ATCC 90028; with C. krusei ATCC 6258; in assay [1]) was 2.1 to 4 µg/mL (≈ 3.67 to 6.99 µM) in each case.
With `COCCO[C@@H](Cn1c(=O)n([C@H]2CC(=O)N(C)C2)c(=O)c2c(C)c(-n3nccn3)sc21)c1cc(F)ccc1OC` [Compound I-94, 1-((R)-2-(5-fluoro-2-methoxyphenyl)-2-(2-methoxy-ethoxy)ethyl)-5-methyl-3-((S)-1-methyl-5-oxopyrrolidin-3-yl)-6-(2H-1,2,3-triazol-2-yl)thieno[2,3-d]pyrimidine-2,4(1H, 3H)-dione], the values for the IC50 at Human ACC2 and on Fungal ACC2 were 2 to 10 nM and 0.7 to 2 nM, respectively. In addition, the minimum inhibitory concentration (MIC) (in the assay on C. albicans ATCC 90028; in the assay with C. krusei ATCC 6258; in assay [1]) was 2.1 to 4 µg/mL (≈ 3.67 to 6.99 µM) in each case.
